Assay results from ChEMBL document CHEMBL5236635, “Structure-Based Drug Design and Synthesis of Novel N-Aryl-2,4-bithiazole-2-amine CYP1B1-Selective Inhibitors in Overcoming Taxol Resistance in A549 Cells” (J Med Chem, 2022).

Key:
CYP1A2 versus CYP1B1 = experiment: Selectivity index, ratio of IC50 for inhibition of recombinant human CYP1A2 to IC50 for inhibition of recombinant human CYP1B1; settings: recombinant human CYP1A2 and recombinant human CYP1B1
Cytochrome P450 1A2 = molecular target: T1, Cytochrome P450 1A2 (Homo sapiens, UniProt P05177); experiment: Inhibition of recombinant human CYP1A2 using 7-ethyl-0-resorufin as substrate incubated for 30 mins in presence of NADPH by EROD assay
T1 sequence (P05177 whole entry): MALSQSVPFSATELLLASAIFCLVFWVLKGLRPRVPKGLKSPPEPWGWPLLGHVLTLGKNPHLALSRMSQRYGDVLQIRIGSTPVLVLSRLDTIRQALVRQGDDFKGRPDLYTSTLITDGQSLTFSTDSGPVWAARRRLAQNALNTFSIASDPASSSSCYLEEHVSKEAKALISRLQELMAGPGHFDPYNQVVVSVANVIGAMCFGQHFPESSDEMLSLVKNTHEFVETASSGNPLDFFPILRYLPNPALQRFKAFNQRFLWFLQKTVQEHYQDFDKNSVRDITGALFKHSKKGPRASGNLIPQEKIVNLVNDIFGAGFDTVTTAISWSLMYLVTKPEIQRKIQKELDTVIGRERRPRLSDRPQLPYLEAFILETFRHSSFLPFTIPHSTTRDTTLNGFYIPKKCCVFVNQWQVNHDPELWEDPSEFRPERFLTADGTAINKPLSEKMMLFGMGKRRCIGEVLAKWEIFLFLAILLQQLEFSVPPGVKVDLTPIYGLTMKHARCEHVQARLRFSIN

CYP1A1 versus CYP1B1 = experiment: Selectivity index, ratio of IC50 for inhibition of recombinant human CYP1A1 to IC50 for inhibition of recombinant human CYP1B1; settings: recombinant human CYP1A1 and recombinant human CYP1B1
Cytochrome P450 1A1 = molecular target: T2, Cytochrome P450 1A1 (Homo sapiens, UniProt P04798); experiment: Inhibition of recombinant human CYP1A1 using 7-ethyl-0-resorufin as substrate incubated for 30 mins in presence of NADPH by EROD assay
T2 sequence (P04798 whole entry): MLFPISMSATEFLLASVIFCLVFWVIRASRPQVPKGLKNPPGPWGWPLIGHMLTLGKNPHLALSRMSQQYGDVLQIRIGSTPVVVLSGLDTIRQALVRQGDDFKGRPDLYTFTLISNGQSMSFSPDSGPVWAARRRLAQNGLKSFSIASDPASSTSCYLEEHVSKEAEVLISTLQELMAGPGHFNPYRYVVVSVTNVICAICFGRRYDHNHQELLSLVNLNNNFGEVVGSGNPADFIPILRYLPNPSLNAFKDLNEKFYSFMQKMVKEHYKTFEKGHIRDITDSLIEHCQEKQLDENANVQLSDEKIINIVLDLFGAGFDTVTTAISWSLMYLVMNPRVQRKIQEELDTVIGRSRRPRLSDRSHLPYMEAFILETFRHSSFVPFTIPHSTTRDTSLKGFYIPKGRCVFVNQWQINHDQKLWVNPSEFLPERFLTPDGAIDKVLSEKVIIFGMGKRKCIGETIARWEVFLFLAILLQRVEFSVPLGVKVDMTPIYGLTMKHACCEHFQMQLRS

CYP1B1 = molecular target: T3, CYP1B1 (Homo sapiens, UniProt Q16678); experiment: Inhibition of recombinant human CYP1B1 assessed as inhibition ratio at 100 nM using 7-ethyl-0-resorufin as substrate incubated for 30 mins in presence of NADPH by EROD assay relative to control; settings: recombinant human CYP1B1, probe 7-ethyl-0-resorufin
T3 sequence (Q16678 whole entry): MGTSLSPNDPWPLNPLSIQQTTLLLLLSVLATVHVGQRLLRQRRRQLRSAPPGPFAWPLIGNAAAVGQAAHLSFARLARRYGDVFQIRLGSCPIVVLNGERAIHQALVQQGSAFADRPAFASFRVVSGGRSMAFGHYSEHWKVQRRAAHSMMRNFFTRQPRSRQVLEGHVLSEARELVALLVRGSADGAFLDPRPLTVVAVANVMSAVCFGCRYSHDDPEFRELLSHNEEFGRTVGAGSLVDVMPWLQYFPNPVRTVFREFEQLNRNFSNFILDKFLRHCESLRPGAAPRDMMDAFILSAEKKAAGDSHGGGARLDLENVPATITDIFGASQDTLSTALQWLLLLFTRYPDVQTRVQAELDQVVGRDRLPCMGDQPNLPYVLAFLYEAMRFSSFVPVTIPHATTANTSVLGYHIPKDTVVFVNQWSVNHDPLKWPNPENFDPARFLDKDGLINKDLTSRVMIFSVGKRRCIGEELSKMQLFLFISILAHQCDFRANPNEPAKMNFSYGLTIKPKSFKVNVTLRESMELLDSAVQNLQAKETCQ

Cytochrome P450 1B1 = molecular target: T4, Cytochrome P450 1B1 (Homo sapiens, UniProt Q16678); experiment: Inhibition of recombinant human CYP1B1 using 7-ethyl-0-resorufin as substrate incubated for 30 mins in presence of NADPH by EROD assay
T4 sequence (Q16678 whole entry): T3 sequence (Q16678 whole entry)

A549 = experiment: Inhibition of DMBA induced taxol resistance in human A549 cells; type: functional, cell-based; settings: dose 2.5-10 µM

SMILES	selectivity ratio (CYP1A2 versus CYP1B1)	IC50 (Cytochrome P450 1A2)	selectivity ratio (CYP1A1 versus CYP1B1)	IC50 (Cytochrome P450 1A1)	inhibition at 0.5 h, 0.1 µM (CYP1B1)	IC50 (Cytochrome P450 1B1)	inhibition (A549)
c1cn(Cc2ccc(Nc3nc(-c4nccs4)cs3)cc2)cn1	9.7	48.5 nM	14.1	70.4 nM	99.7%	4.96 nM	
Clc1cc(Cl)cc(Nc2nc(-c3nccs3)cs2)c1	31.5	55.7 nM	101	178 nM	97.2%	1.76 nM	
COc1cc(Nc2nc(-c3nccs3)cs2)cc(OC)c1	733	89 nM	363	43.9 nM	90.7%	0.121 nM	
c1ccc(-c2csc(-c3csc(Nc4ccc(N5CCOCC5)cc4)n3)n2)cc1	247	2860 nM	28.9	334 nM		11.6 nM	
Cc1sc(-c2csc(Nc3cccc(F)c3)n2)nc1-c1ccncc1	3.14	230 nM	1.43	105 nM		73.3 nM	
COc1cccc(-c2csc(-c3csc(Nc4ccc(N5CCOCC5)cc4)n3)n2)c1	174	4670 nM	11.7	315 nM		26.8 nM	
c1csc(-c2csc(Nc3ccc(N4CCOCC4)cc3)n2)n1	236	1860 nM	126	994 nM	87.7%	7.88 nM	
Clc1cc(Cl)cc(Nc2nc(-c3nc(-c4ccccn4)cs3)cs2)c1	120	5390 nM	20.4	916 nM		44.8 nM	
Clc1ccc(Nc2nc(-c3nccs3)cs2)cc1	18.8	119 nM	92.9	586 nM	90%	6.31 nM	
Clc1cc(Nc2nc(-c3nccs3)cs2)cc(Cl)c1Cl	64.8	483 nM	64.7	482 nM	100%	7.45 nM	
Cc1sc(-c2csc(Nc3cc(Cl)cc(Cl)c3)n2)nc1-c1ccccc1	13.4	313 nM	13.5	316 nM		23.3 nM	
c1csc(-c2csc(Nc3ccc(Cn4cncn4)cc3)n2)n1	15.4	141 nM	18.2	166 nM	92%	9.09 nM	
Fc1ccccc1-c1csc(-c2csc(Nc3cc(Cl)cc(Cl)c3)n2)n1							Dose-Dependent Effect
Fc1ccccc1-c1csc(-c2csc(Nc3ccc(N4CCOCC4)cc3)n2)n1	392	5060 nM	8.48	110 nM		12.9 nM	
c1csc(-c2csc(Nc3ccc4c(c3)OCO4)n2)n1	8.71	78.5 nM	10.3	93 nM	97.6%	9 nM	
CCc1sc(-c2csc(Nc3cc(OC)cc(OC)c3)n2)nc1-c1ccccc1	484	5250 nM	56.3	611 nM		10.8 nM	
c1cc(-c2csc(-c3csc(Nc4ccc(N5CCOCC5)cc4)n3)n2)ccn1	2.04	312 nM	29.2	4460 nM		153 nM	
Cc1sc(-c2csc(Nc3ccc(N4CCOCC4)cc3)n2)nc1-c1ccncc1	6.2	1260 nM	1.36	276 nM		203 nM	
CCc1sc(-c2csc(Nc3ccc(N4CCOCC4)cc3)n2)nc1-c1ccncc1	22.3	3450 nM	0.99	153 nM		155 nM	
